Measured values from US10570179B2, “Substituted urea depsipeptide analogs as activators of the CLPP endopeptidase” (priority 2016, dated 2020).
Values after ≈ are worked out from the molar mass of the structure shown. Numbered stars: 1 amine (or outer) side, 2 acyl side, 3 side chain; on linkers, the order of the positions; unused ones are H or OH. Bridge positions count the residues as written; N and C are the ends. Square brackets hold non-standard residues; d marks the D form. Peptide text beside a SMILES is read from it. * marks the point of attachment. ξ: configuration not given here. Piperazine(2S-CO,4-Me) = CN1CCN[C@H](C(=O)O)C1; Phe(3,5-F2) = N[C@@H](Cc1cc(F)cc(F)c1)C(=O)O; Morpholine(3S-CO) = O=C(O)[C@@H]1COCCN1; Phe(3-Me) = Cc1cccc(C[C@H](N)C(=O)O)c1; NH(4-Cl-2-F-phenyl) = Fc1cc(Cl)ccc1N*; Pro(4R-Me) = C[C@H]1CN[C@H](C(=O)O)C1; Propanoyl(3-NMe2) = CN(C)CCC(=O)*; X1 = O=C([C@@H]1CSCCN1[*:1])[*:2]; Hyp = O=C(O)[C@@H]1C[C@@H](O)CN1; NH(4-Et-phenyl) = CCc1ccc(N*)cc1; ξNMeThr = CNC(C(=O)O)[C@@H](C)O; aThr = C[C@H](O)[C@H](N)C(=O)O; Pip = O=C(O)[C@@H]1CCCCN1; X3 = c1cc2c(cc1N*)OCCO2; CO = O=C([*:1])[*:2]; X2 = Fc1cc(N*)ccc1Cl

Key:
[1] = tested on: S. aureus ΔClpP; assay: Minimal inhibitory concentration, microbroth dilution; assay type: cell-based, Staphylococcus aureus; details: MIC; ClpP inactivated
Summary of the method: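 MIC is recorded by eye as the lowest drug concentration that stops bacterial growth. Compound is serially diluted twofold in broth, starting at 200 μM final, and bacteria are added at roughly 10^5 cfu/mL. Incubation runs overnight at 37 °C under aerobic conditions, per CLSI guidance.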

[2] = Solubility determination; assay type: physicochemical; details: for solubility kinetic at 10 min: 22 °C, aqueous buffer, kinetic from dmso stock
Summary of the method: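 DMSO stock spiked into DPBS at 100 µM final, in triplicate, shaken 10 min, then centrifuged 20 min at 22 °C. Supernatant quantified by UPLC-UV and single-ion-recording MS against DMSO calibration standards (0.098–100 µM), using 1/x²-weighted linear regression.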

[3] = Plasma stability assay; assay type: in vitro ADME, human; details: human, 10 μM
Summary of the method: (§1)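 Compounds at 10 μM final in human or mouse plasma, incubated at 37 °C and sampled at 0, 3, 24 and 48 h in triplicate. Reactions quenched with cold acetonitrile containing warfarin internal standard; parent measured by LC-MS. Half-life from least-squares first-order fit.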

[4] = Plasma stability assay; assay type: in vitro ADME, mouse; details: mouse, 10 μM
Summary of the method: as §1

SMILES	Minimal Inhibitory Concentrations (μM) S. aureus ΔClpP [1]	μsol (μM) [2]	solubility kinetic at 10 min [2]	Human [3]	Mouse [4]
Cc1cccc(C[C@H](NC(=O)Nc2ccc(Cl)cc2F)C(=O)N[C@@H]2C(=O)N3CCC[C@H]3C(=O)N3CCSC[C@H]3C(=O)N[C@@H](C)C(=O)N3C[C@H](C)C[C@H]3C(=O)O[C@H]2C)c1 [Compound 38, (S)-2-(3-(4-CHLORO-2-FLUOROPHENYL)UREIDO)-3-(M-TOLYL)-N-((6AS,12S,13S,15AS,17R,21S,23AR)-13,17,21-TRIMETHYL-6,11,15,20,23-PENTAOXOOCTADECAHYDRO-6H,11H,15H-DIPYRROLO[2,1-C:2′,1′-L][1,4]THIAZINO[3,4-I][1]OXA[4,7,10,13]TETRAAZACYCLOHEXADECIN-12-YL)PROPANAMIDE] ({NH(4-Cl-2-F-phenyl)-CO}-[Phe(3-Me)][aThr]P[X1]A[Pro(4R-Me)]; ester 2-C)	>20 µM	1.7 ± .70 µM	0.011 ± 0.011 µM (≈ 0.00927 µg/mL)	>50 h	>50 h
Cc1cccc(C[C@H](NC(=O)Nc2ccc3c(c2)OCCO3)C(=O)N[C@@H]2C(=O)N3C[C@H](O)C[C@H]3C(=O)N3CCOC[C@H]3C(=O)N[C@@H](C)C(=O)N3C[C@H](C)C[C@H]3C(=O)O[C@H]2C)c1 [Compound 27, (S)-2-(3-(2,3-DIHYDROBENZO[B][1,4]DIOXIN-6-YL)UREIDO)-N-((6AS,8R,12S,13S,15AS,17R,21S,23AS)-8-HYDROXY-13,17,21-TRIMETHYL-6,11,15,20,23-PENTAOXOOCTADECAHYDRO-6H,11H,15H-[1,4]OXAZINO[3,4-I]DIPYRROLO[2,1-C:2′,1′-L][1]OXA[4,7,10,13]TETRAAZACYCLOHEXADECIN-12-YL)-3-(M-TOLYL)PROPANAMIDE] ({X3-CO}-[Phe(3-Me)][aThr][Hyp][Morpholine(3S-CO)]A[Pro(4R-Me)]; ester 2-C)	>20 µM		45.6 ± 5.6 µM (≈ 38.7 µg/mL)	>50 h	>50 h
Cc1cccc(C[C@H](NC(=O)Nc2ccc(Cl)c(F)c2)C(=O)N[C@@H]2C(=O)N3CCC[C@H]3C(=O)N3CCCC[C@H]3C(=O)N[C@@H](C)C(=O)N3C[C@H](C)C[C@H]3C(=O)O[C@H]2C)c1 [Compound 35, (S)-2-(3-(4-CHLORO-3-FLUOROPHENYL)UREIDO)-3-(M-TOLYL)-N-((2R,6S,8AS,14AS,20S,21S,23AS)-2,6,21-TRIMETHYL-5,8,14,19,23-PENTAOXOOCTADECAHYDRO-1H,5H,14H,19H-PYRIDO[2,1-I]DIPYRROLO[2,1-C:2′,1′-L][1]OXA[4,7,10,13]TETRAAZACYCLOHEXADECIN-20-YL)PROPANAMIDE] ({X2-CO}-[Phe(3-Me)][aThr]P[Pip]A[Pro(4R-Me)]; ester 2-C)	>20 µM	0.9 ± .95 µM	0.002 ± 0.002 µM (≈ 0.00165 µg/mL)	>50 h	>50 h
Cc1cccc(C[C@H](NC(=O)Nc2ccc(Cl)cc2F)C(=O)N[C@@H]2C(=O)N3CCC[C@H]3C(=O)N(C)C([C@@H](C)O)C(=O)N[C@@H](C)C(=O)N3C[C@H](C)C[C@H]3C(=O)O[C@H]2C)c1 (stereo partly drawn) [Compound 5] ({NH(4-Cl-2-F-phenyl)-CO}-[Phe(3-Me)][aThr]P[ξNMeThr]A[Pro(4R-Me)]; ester 2-C)	>20 µM	22.5 ± 1.9 µM	17.4 ± 0.4 µM (≈ 14.4 µg/mL)	>50 h	>50 h
Cc1cccc(C[C@H](NC(=O)Nc2ccc3c(c2)OCO3)C(=O)N[C@H]2COC(=O)[C@@H]3C[C@@H](C)CN3C(=O)[C@H](C)NC(=O)[C@@H]3CCCCN3C(=O)[C@@H]3CCCN3C2=O)c1 [Compound 23, (S)-2-(3-(BENZO[D][1,3]DIOXOL-5-YL)UREIDO)-N-((2R,6S,8AS,14AS,20S,23AS)-2,6-DIMETHYL-5,8,14,19,23-PENTAOXOOCTADECAHYDRO-1H,5H,14H,19H-PYRIDO[2,1-I]DIPYRROLO[2,1-C:2′,1′-L][1]OXA[4,7,10,13]TETRAAZACYCLOHEXADECIN-20-YL)-3-(M-TOLYL)PROPANAMIDE]	>20 µM	3.0 ± 0.0 µM	1.7 ± 0.1 µM (≈ 1.36 µg/mL)	>50 h	27.31 h
Cc1cccc(C[C@H](NC(=O)Nc2ccc(Cl)cc2F)C(=O)N[C@@H]2C(=O)N3C[C@H](OC(=O)CCN(C)C)C[C@H]3C(=O)N3CCCC[C@H]3C(=O)N[C@@H](C)C(=O)N3C[C@H](C)C[C@H]3C(=O)O[C@H]2C)c1 [Compound 46, (2R,6S,8AS,14AS,16R,20S,21S,23AS)-20-((S)-2-(3-(4-CHLORO-2-FLUOROPHENYL)UREIDO)-3-(M-TOLYL)PROPANAMIDO)-2,6,21-TRIMETHYL-5,8,14,19,23-PENTAOXOOCTADECAHYDRO-1H,5H,14H,19H-PYRIDO[2,1-I]DIPYRROLO[2,1-C:2′,1′-L][1]OXA[4,7,10,13]TETRAAZACYCLOHEXADECIN-16-YL 3-(DIMETHYLAMINO)PROPANOATE] ({NH(4-Cl-2-F-phenyl)-CO}-[Phe(3-Me)][aThr][Hyp](Propanoyl(3-NMe2))[Pip]A[Pro(4R-Me)]; ester 2-C)	>20 µM	12.1 ± 1.5 µM	195 ± 27 µM (≈ 183 µg/mL)	0.57 h	0.49 h
CCc1ccc(NC(=O)N[C@@H](Cc2cccc(C)c2)C(=O)N[C@H]2COC(=O)[C@@H]3C[C@@H](C)CN3C(=O)[C@H](C)NC(=O)[C@@H]3CN(C)CCN3C(=O)[C@@H]3CCCN3C2=O)cc1 [Compound 16, (S)-2-(3-(4-ETHYLPHENYL)UREIDO)-3-(M-TOLYL)-N-((6AS,12S,15AS,17R,21S,23AS)-2,17,21-TRIMETHYL-6,11,15,20,23-PENTAOXOOCTADECAHYDRO-2H,6H,11H,15H-PYRAZINO[2,1-I]DIPYRROLO[2,1-C:2′,1′-L][1]OXA[4,7,10,13]TETRAAZACYCLOHEXADECIN-12-YL)PROPANAMIDE] ({NH(4-Et-phenyl)-CO}-[Phe(3-Me)]SP[Piperazine(2S-CO,4-Me)]A[Pro(4R-Me)]; ester 2-C)	>20 µM	47.4 ± 5.7 µM	53.2 ± 6.5 µM (≈ 42.6 µg/mL)	>50 h	6.86 ± 0.7 h
Cc1cccc(C[C@H](NC(=O)Nc2ccc(Cl)cc2F)C(=O)N[C@@H]2C(=O)N3CCC[C@H]3C(=O)N3CCN(C)C[C@H]3C(=O)N[C@@H](C)C(=O)N3C[C@H](C)C[C@H]3C(=O)O[C@H]2C)c1 [Compound 11, (S)-2-(3-(4-CHLORO-2-FLUOROPHENYL)UREIDO)-N-((6AS,12S,13S,15AS,17R,21S,23AS)-2,13,17,21-TETRAMETHYL-6,11,15,20,23-PENTAOXOOCTADECAHYDRO-2H,6H,11H,15H-PYRAZINO[2,1-I]DIPYRROLO[2,1-C:2′,1′-L][1]OXA[4,7,10,13]TETRAAZACYCLOHEXADECIN-12-YL)-3-(M-TOLYL)PROPANAMIDE] ({NH(4-Cl-2-F-phenyl)-CO}-[Phe(3-Me)][aThr]P[Piperazine(2S-CO,4-Me)]A[Pro(4R-Me)]; ester 2-C)	>20 µM	32.2 ± 1.4 µM	43.2 ± 3.14 µM (≈ 36.3 µg/mL)	44.21 h	36.62 h
C[C@@H]1C[C@H]2C(=O)OC[C@H](NC(=O)[C@H](Cc3cc(F)cc(F)c3)NC(=O)Nc3ccc(Cl)cc3F)C(=O)N3CCC[C@H]3C(=O)N3CCN(C)C[C@H]3C(=O)N[C@@H](C)C(=O)N2C1 [Compound 34] ({NH(4-Cl-2-F-phenyl)-CO}-[Phe(3,5-F2)]SP[Piperazine(2S-CO,4-Me)]A[Pro(4R-Me)]; ester 2-C)	>20 µM	38.7 ± 8.7 µM	53.6 ± 3.58 µM (≈ 45.4 µg/mL)	26.56 h	21.18 h
